Here are results for 72 compounds from ChEMBL document CHEMBL3507680, “University of Dundee, Gates Library screen for HepG2 cell viability”.

This series is described as follows: Human HepG2 cell viability assay in 384 well format. The series is classed as toxicity, cell-based. Set-up: dose 125 nL, time 70.5 hour; cytotoxicity at 70.5 h: concentration not given beside the values. The settings on record: HepG2 cells, read-out: Inhibition.
With `CCCc1nnc(N(C)CC2CCN(CC(C)C)C2)o1` (configuration not stated), the cytotoxicity at 70.5 h is -1.56%.

On to `CC(C)n1cnnc1CN(C)C(=O)CCn1cnc2ccccc2c1=O`, for which the cytotoxicity at 70.5 h was -17.5%.

As to `CCNc1ncc(C(=O)NCc2ccc3nsnc3c2)cn1`, the cytotoxicity at 70.5 h amounted to 0.938%.

On to `CNC(=O)c1cnc2c(C)csc2c1`, for which the cytotoxicity at 70.5 h is 22%.

As to `Cc1cnc(C(=O)NCC2Cc3ccccc3O2)cn1` (configuration not stated), the cytotoxicity at 70.5 h was 1.1%.

Consider `CN(C)C(=O)c1cccc(C2CCN(c3ncccn3)CC2)n1`, for which the cytotoxicity at 70.5 h is -4.03%.

For `Cc1nc(N2CCN(C(=O)c3ccccn3)CC2)c2c(n1)c(C)nn2C`, the cytotoxicity at 70.5 h is -8.87%.

As to `COCCN1CC[C@@H]2OC[C@H](C(=O)N(C)Cc3ccccn3)C[C@@H]2C1`, the cytotoxicity at 70.5 h is -3.83%.

Turning to `C[C@@H]1CN(c2ccc3c(Cl)ccnc3c2F)CC(C(N)=O)O1` (some centres not stated), the cytotoxicity at 70.5 h is -4.78%.

Turning to `Fc1cccc(N2CCOC3(CCCN(c4cnccn4)C3)C2)c1` (configuration not stated), the cytotoxicity at 70.5 h was -7.3%.

With `c1ccc(-c2nn3c(CN4CCOCC4)nnc3s2)nc1`, the cytotoxicity at 70.5 h is -3.21%.

`CN(C)CCn1ccc2ccc(NC(=O)c3ccncc3F)cc21`: the cytotoxicity at 70.5 h is -6.52%.

Take `O=C1CC2(CCN(S(=O)(=O)c3cccs3)C2)CN1c1ccccc1` (configuration not stated): the cytotoxicity at 70.5 h was -9.28%.

As for `Cc1oc(CNC(=O)Cc2ccccc2Cl)cc1C(=O)O`, the cytotoxicity at 70.5 h was -7.56%.

Regarding `CCN(CCCc1ccccc1C)S(C)(=O)=O`, the cytotoxicity at 70.5 h is -3.45%.

Consider `CC(CNC(=O)c1ccccc1Oc1cccnc1)N(C)C` (configuration not stated), for which the cytotoxicity at 70.5 h is -6.12%.

Take `O=C(COCC(F)(F)C(F)F)N1CCC2(CCCN(CC3CC3)C2=O)C1` (configuration not stated): the cytotoxicity at 70.5 h is -8.88%.

As for `O=c1[nH][nH]cc1-c1ccnc(NCCc2ccc(F)cc2)n1`, the cytotoxicity at 70.5 h is -6.1%.

As for `COCCN1CCC(c2nc3ccc(NC(C)C)cn3n2)CC1`, the cytotoxicity at 70.5 h is -17.4%.

Regarding `O=C(CSc1ccc2c(c1)OCCO2)NS(=O)(=O)c1cc(F)ccc1F`, the cytotoxicity at 70.5 h is -7.36%.

In the case of `O=C(NCC(F)F)N1CCC(n2ccc(C(F)(F)F)n2)CC1`, the cytotoxicity at 70.5 h was 2.24%.

On to `Cc1nc(C)n(CC2CCCN2Cc2cn3ccccc3n2)n1` (configuration not stated), for which the cytotoxicity at 70.5 h is -14.7%.

In the case of `Cc1cc(CN2CCC(C3CCN(CCc4ccccc4)C3)CC2)[nH]n1` (configuration not stated), the cytotoxicity at 70.5 h was -0.374%.

On to `Cc1cc(C(O)CCNC(=O)COc2ccccc2C)c(C)o1` (configuration not stated), for which the cytotoxicity at 70.5 h is -2.27%.

On to `FC(F)(F)Cn1ccnc1CNCC1CCCN1c1cccnn1` (configuration not stated), for which the cytotoxicity at 70.5 h is -13.2%.

As to `CC(C)CNC(=O)C(C)N1CCN(C2CCN(C(C)C)CC2)CC1` (configuration not stated), the cytotoxicity at 70.5 h was -12.6%.

`COCCN(CCC#N)S(=O)(=O)c1cc(F)ccc1F`: the cytotoxicity at 70.5 h was -2.55%.

Turning to `CC(C)c1nnc2n1CCN(C(=O)Cc1csc(C(C)(C)C)n1)C2`, the cytotoxicity at 70.5 h was -8.69%.

As for `CC(=O)NCC1CCCN(Cc2nc(Cc3ccccc3F)no2)C1` (configuration not stated), the cytotoxicity at 70.5 h stood at 0.817%.

Consider `CC(C)n1cc(CN(Cc2ccc(F)cc2)CC2CCCO2)cn1` (configuration not stated), for which the cytotoxicity at 70.5 h turned out to be 15.6%.

Take `Cc1n[nH]cc1CNC1(Cc2ccc(Br)cc2)CCCCC1`: the cytotoxicity at 70.5 h was -1.97%.

Consider `c1cc(CN2CCC(CCn3cccn3)CC2)cc(Cn2cccn2)c1`, for which the cytotoxicity at 70.5 h was -2.62%.

For `Cc1cc(CN2C[C@@H]3COC[C@]3(CN(C)C)C2)no1`, the cytotoxicity at 70.5 h was -6.11%.

For the compound `Cc1nnc(CCNC2CCN(c3ncnc4c(C)csc34)CC2)s1`, the cytotoxicity at 70.5 h was -2.85%.

Take `CCCN(CCN(C)C)C(=O)Cc1cn2ccsc2n1`: the cytotoxicity at 70.5 h turned out to be 5.05%.

As for `Cc1ccc(NC(=O)C2CCCN2C(=O)C2CC2)nc1` (configuration not stated), the cytotoxicity at 70.5 h is -3.51%.

With `CN1CCN(C2CCN(Cc3ccc(Cl)cc3)CC2)C1=O`, the cytotoxicity at 70.5 h is -2.16%.

Turning to `COCCc1noc(CN2CCCC2c2noc(C(C)C)n2)n1` (configuration not stated), the cytotoxicity at 70.5 h amounted to 17.1%.

On to `CCCOC(C)Cn1ccc2[nH]c(=O)c(C#N)cc2c1=O` (configuration not stated), for which the cytotoxicity at 70.5 h was found to be 10.5%.

Consider `COCCN1CCN(C(C(=O)O)c2ccc(SC)cc2)CC1` (configuration not stated), for which the cytotoxicity at 70.5 h was -5.21%.

Consider `CC(C)c1noc(CN(C)C(c2ccc(F)cc2)c2cccnc2)n1` (configuration not stated), for which the cytotoxicity at 70.5 h stood at 10.2%.

With `Cc1nccc(NCc2cncc3c2CCN(CC2CCOC2)C3)n1` (configuration not stated), the cytotoxicity at 70.5 h was 5.73%.

On to `Cc1ccc(NC(=O)C2CSCN2C(=O)c2ccncc2)c(C)c1` (configuration not stated), for which the cytotoxicity at 70.5 h is -4.2%.

For `CC(C)(CNC(=O)NCCc1ccn(-c2ccccc2)n1)C(N)=O`, the cytotoxicity at 70.5 h is -6.77%.

For the compound `CN1CCN(c2ncc(CNCCCc3cccc(F)c3)cn2)CC1`, the cytotoxicity at 70.5 h was 25.4%.

Turning to `COCCN1CCC2(C1)CN(c1ncccn1)C2`, the cytotoxicity at 70.5 h was -0.0538%.

`CC(C)NC(=O)NCc1nnc2n1C(C(=O)N(C)C)CC2` (configuration not stated): the cytotoxicity at 70.5 h is -3.97%.

Regarding `O=S(=O)(c1ccc2c(c1)OCCO2)N1CCc2ccccc2C1`, the cytotoxicity at 70.5 h is -7.73%.

For the compound `Cc1nc(C)n(CC2CN(Cc3ccccc3C#N)CCO2)n1` (configuration not stated), the cytotoxicity at 70.5 h was -3.74%.

With `CN1CCC(NCC2(O)CCCN(Cc3ccccc3F)C2=O)CC1` (configuration not stated), the cytotoxicity at 70.5 h is -4.92%.

Turning to `Fc1cccc(CN2CCC(c3cc4ncccc4cn3)CC2)c1F`, the cytotoxicity at 70.5 h was determined as 4.71%.

For the compound `COCCNC(=O)c1cc(S(=O)(=O)N2CCCCCC2)cs1`, the cytotoxicity at 70.5 h was 15.3%.

For the compound `O=C1CC2(CCN(CC3CC3)C2)CN1c1cccc(F)c1` (configuration not stated), the cytotoxicity at 70.5 h came to 6.96%.

For the compound `CN(C)C(=O)CO[C@H]1CN(Cc2cccc(F)c2)[C@@H]2CCCO[C@H]12`, the cytotoxicity at 70.5 h was -0.497%.

For the compound `N#Cc1ccccc1CN1C[C@@H]2CC[C@H](C1)N(CC1CC1)C2=O`, the cytotoxicity at 70.5 h is -7.57%.

As to `CSc1ccc(NC(=O)NCc2nncn2C2CC2)cc1F`, the cytotoxicity at 70.5 h is 2.39%.

As for `Cc1nn(C)c(=O)c2nn(-c3cccc(Cl)c3)c(C)c12`, the cytotoxicity at 70.5 h was -14.1%.

For `Cc1ncc2c(n1)CN(Cc1nnc(Cc3ccccc3)o1)CC2`, the cytotoxicity at 70.5 h is -3.37%.

For `CCc1cc(NCc2cc3n(n2)CCCN(S(C)(=O)=O)C3)nc(C)n1`, the cytotoxicity at 70.5 h is -6.87%.

`CC(C)c1nnc2ccc(N3CCC(C(=O)NC4CC4)CC3)nn12`: the cytotoxicity at 70.5 h was -25%.

For `CCN(CC)c1ncccc1CNC(=O)c1cnn(CC)c1`, the cytotoxicity at 70.5 h was -3.9%.

With `CSC(C)(C)CNC(=O)NC1CCN(CC=C(C)C)CC1`, the cytotoxicity at 70.5 h came out at 31.2%.

Consider `CN(C(=O)NCc1ccsc1)C1CCN(c2ccccc2)C1=O` (configuration not stated), for which the cytotoxicity at 70.5 h was 0.0689%.

In the case of `Cc1cccc(S(=O)(=O)NCC(C)N2CCN(C)CC2)c1Cl` (configuration not stated), the cytotoxicity at 70.5 h is -1.95%.

As to `Cc1nc(C)n(CC2CCCN2CC(=O)NCCC#N)n1` (configuration not stated), the cytotoxicity at 70.5 h was -19.9%.

Regarding `Cc1c[nH]c(C2CCCN(Cc3ccccc3C(=O)O)C2)n1` (configuration not stated), the cytotoxicity at 70.5 h is 18.7%.

With `Cc1cc(-c2ccnn2C)nc(C2CCN(S(C)(=O)=O)CC2)n1`, the cytotoxicity at 70.5 h is -4.75%.

In the case of `N#Cc1ccc(CNc2cnn(CCN3CCOCC3)c2)cc1`, the cytotoxicity at 70.5 h was found to be 42.1%.

For the compound `O=C(c1c[nH]cn1)N1CCC(F)(F)C2(CCN(c3cnccn3)C2)C1` (configuration not stated), the cytotoxicity at 70.5 h was found to be 0.139%.

On to `O=C(CN1CCCNC1=O)Nc1ccccc1C(=O)C1CCCC1`, for which the cytotoxicity at 70.5 h was -0.928%.

On to `Cc1cnn(CC2CN(c3ccc(C#N)cn3)CCO2)c1` (configuration not stated), for which the cytotoxicity at 70.5 h came to 23.6%.

In the case of `Cn1cncc1CN1CCCC1c1cncc(Oc2ccc(F)cc2)n1` (configuration not stated), the cytotoxicity at 70.5 h is -10.5%.
